Data: the supplement of paper PMC10331698
± gives the standard deviation of the averaged measurements.

How the values were obtained:
[1] = compound: FC(F)(F)COC(OCC(F)(F)F)OCC(F)(F)F [tris(Trifluoroethoxy)methane]; assay: level (log10 ratio to DMSO vehicle control); higher = higher biomarker level / cell amount than vehicle control; conditions: in DMSO
Experimental: (§1)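 BioMAP Diversity Plus panel of 12 human primary cell co-culture systems (3C, 4H, LPS, SAg, BT, BF4T, BE3C, CASM3C, HDF3CGF, KF3CT, MyoF, Mphg). Compounds were added 1 h before stimulation and left for 24 h (MyoF 48 h; BT 72 h for soluble read-outs or 6 d for IgG). Biomarkers were read by ELISA, cytotoxicity by SRB, PBMC viability and proliferation by Alamar Blue. Each well value was divided by the mean of 8 DMSO control wells on the same plate and log10 transformed; duplicate blinded samples were tested at 4 concentrations.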

[2] = compound: O=C(CC(=O)C(F)(F)C(F)(F)C(F)(F)F)c1cccs1 [(Perfluorobutyryl)-2-thenoylmethane]; assay: as above; conditions: in DMSO
Experimental: as §1

Test System | level (log10) ([1]; 6700 nM) | level (log10) ([1]; 20000 nM) | level (log10) ([1]; 60000 nM) | level (log10) ([2]; 6700 nM) | level (log10) ([2]; 20000 nM)
HDF3CGF:CXCL11/I-TAC | -0.01 ± 0.0014 | -0.0125 ± 0.021 | -0.0145 ± 0.026 | -0.014 ± 0.013 | -0.114 ± 0.0092
CASM3C:Serum Amyloid A | -0.028 ± 0.027 | -0.026 ± 0.04 | 0.0045 ± 0.044 | 0.0285 ± 0.013 | -0.038 ± 0.013
CASM3C:HLA-DR | -0.0115 ± 0.0064 | -0.007 | -0.0135 ± 0.023 | -0.018 ± 0.0042 | -0.0365 ± 0.022
KF3CT:CXCL8/IL-8 | 0.002 ± 0.011 | 0.007 ± 0.013 | 0.012 ± 0.0014 | -0.037 ± 0.027 | -0.027 ± 0.025
CASM3C:CCL2/MCP-1 | 0.001 ± 0.0042 | -0.0005 ± 0.0064 | 0.0215 ± 0.035 | 0.039 ± 0.011 | -0.017 ± 0.011
3C:CD142/Tissue Factor | -0.0195 ± 0.07 | -0.009 ± 0.052 | -0.028 | -0.0775 ± 0.022 | -0.356 ± 0.057
HDF3CGF:CCL2/MCP-1 | 0.0035 ± 0.06 | 0.006 ± 0.051 | 0.0165 ± 0.035 | -0.005 ± 0.011 | -0.172 ± 0.014
CASM3C:CXCL9/MIG | 0.0015 ± 0.012 | -0.0115 ± 0.0064 | -0.0145 ± 0.005 | -0.0295 ± 0.018 | -0.0945 ± 0.077
MyoF:Collagen III | 0.0035 ± 0.0035 | -0.0005 ± 0.019 | 0.009 ± 0.0042 | -0.059 ± 0.018 | -0.141 ± 0.0078
HDF3CGF:CD54/ICAM-1 | -0.0195 ± 0.00071 | -0.013 ± 0.034 | -0.008 ± 0.0057 | -0.0475 ± 0.011 | -0.0295 ± 0.0064
CASM3C:Proliferation | -0.033 ± 0.021 | -0.042 ± 0.0014 | 0.021 ± 0.027 | -0.0865 ± 0.013 | -0.245 ± 0.018
MyoF:TIMP-1 | -0.0325 ± 0.032 | -0.05 ± 0.055 | -0.076 ± 0.0028 | -0.042 ± 0.047 | -0.0405 ± 0.015
CASM3C:CXCL8/IL-8 | -0.008 ± 0.0042 | -0.01 ± 0.016 | 0.0055 ± 0.03 | -0.0045 ± 0.0021 | -0.043 ± 0.0057
3C:CD141/Thrombomodulin | -0.012 ± 0.061 | -0.038 ± 0.047 | -0.0425 ± 0.049 | -0.113 ± 0.081 | -0.071 ± 0.05
lMphg:CCL3/MIP-1alpha | -0.03 ± 0.021 | -0.035 ± 0.024 | -0.0245 ± 0.018 | 0.0225 ± 0.029 | 0.012 ± 0.057
MyoF:CD106/VCAM-1 | -0.021 ± 0.034 | -0.03 ± 0.028 | -0.034 ± 0.0057 | -0.0225 ± 0.039 | -0.0315 ± 0.013
BE3C:MMP-9 | -0.005 ± 0.0028 | -0.004 ± 0.0014 | 0.0045 ± 0.019 | 0.0275 ± 0.013 | -0.269 ± 0.0099
HDF3CGF:MMP-1 | -0.005 ± 0.0099 | -0.005 ± 0.0014 | 0 ± 0.0085 | -0.0195 ± 0.0092 | -0.0935 ± 0.0078
BE3C:tPA | -0.0075 ± 0.013 | -0.028 ± 0.024 | -0.0125 ± 0.021 | -0.1 ± 0.014 | -0.234 ± 0.011
lMphg:SRB-Mphg | -0.026 ± 0.013 | -0.038 ± 0.044 | -0.008 ± 0.027 | 0.005 ± 0.011 | -0.054 ± 0.0028

Test System | level (log10) ([1]; 6700 nM) | level (log10) ([1]; 20000 nM) | level (log10) ([1]; 60000 nM) | level (log10) ([2]; 6700 nM) | level (log10) ([2]; 20000 nM)
HDF3CGF:Proliferation 72hr | -0.038 ± 0.081 | 0.001 ± 0.038 | -0.006 ± 0.038 | -0.38 ± 0.0092 | -0.485 ± 0.005
HDF3CGF:CD106/VCAM-1 | 0.0315 ± 0.018 | -0.0275 ± 0.021 | -0.0325 ± 0.059 | -0.0405 ± 0.018 | 0.025 ± 0.0042
HDF3CGF:Collagen III | -0.013 ± 0.0071 | -0.0205 ± 0.0092 | 0.0075 ± 0.016 | 0.0155 ± 0.013 | -0.452 ± 0.0042
BE3C:Keratin 8/18 | -0.0035 ± 0.019 | -0.0215 ± 0.021 | 0.01 ± 0.0057 | -0.0535 ± 0.025 | -0.145 ± 0.005
lMphg:CD69 | 0.0225 ± 0.05 | 0.005 ± 0.035 | 0.0095 ± 0.042 | -0.169 ± 0.049 | -0.23 ± 0.013
KF3CT:uPA | -0.0005 ± 0.043 | -0.011 ± 0.018 | -0.014 ± 0.023 | 0.021 ± 0.0014 | 0.0195 ± 0.005
lMphg:M-CSF | -0.012 ± 0.0071 | -0.025 ± 0.035 | -0.0135 ± 0.029 | -0.0285 ± 0.0021 | -0.072 ± 0.0085
BE3C:MMP-1 | 0.004 ± 0.059 | 0.004 ± 0.025 | 0.01 ± 0.0099 | 0.0945 ± 0.015 | -0.051 ± 0.017
CASM3C:PAI-I | -0.003 ± 0.03 | 0.0015 ± 0.013 | 0.007 ± 0.0057 | -0.0135 ± 0.005 | -0.008 ± 0.0057
lMphg:SRB | -0.0035 ± 0.011 | -0.0025 ± 0.0021 | 0.0045 ± 0.023 | -0.0175 ± 0.0064 | -0.106 ± 0.029
CASM3C:CD106/VCAM-1 | -0.0095 ± 0.005 | -0.02 ± 0.0014 | -0.025 ± 0.0057 | -0.0225 ± 0.012 | -0.104 ± 0.028
MyoF:Decorin | 0.017 ± 0.025 | 0.0235 ± 0.013 | 0.0245 ± 0.021 | 0.0045 ± 0.011 | 0.0285 ± 0.022
3C:CD54/ICAM-1 | 0.004 ± 0.0042 | -0.0105 ± 0.0064 | -0.0145 ± 0.00071 | -0.027 ± 0.021 | -0.0365 ± 0.00071
KF3CT:CXCL9/MIG | 0.0215 ± 0.032 | 0.006 ± 0.027 | 0.0175 ± 0.015 | 0.0085 ± 0.0064 | 0.009 ± 0.0057
lMphg:CD40 | -0.0235 ± 0.044 | -0.0135 ± 0.012 | -0.0265 ± 0.032 | -0.0105 ± 0.016 | -0.119 ± 0.0071
lMphg:sIL-10 | -0.045 ± 0.075 | -0.061 ± 0.037 | -0.0855 ± 0.091 | 0.0065 ± 0.071 | -0.429 ± 0.093
BE3C:uPA | 0.0075 ± 0.021 | -0.004 ± 0.0071 | -0.0175 ± 0.00071 | 0.0235 ± 0.00071 | 0.0095 ± 0.022
lMphg:IL-1alpha | -0.031 ± 0.014 | -0.03 ± 0.0028 | -0.006 ± 0.03 | 0.0035 ± 0.0035 | 0.0395 ± 0.04
MyoF:Collagen IV | -0.026 ± 0.0042 | -0.027 ± 0.02 | -0.0075 ± 0.03 | 0.018 ± 0.1 | 0.534 ± 0.07
lMphg:CXCL8/IL-8 | -0.0095 ± 0.016 | -0.018 ± 0.0042 | -0.007 ± 0.044 | -0.022 ± 0.027 | 0.048 ± 0.011
